Laboratory results taken from ChEMBL document CHEMBL1201862, “PubChem BioAssay data set” (2004).
Calls of active or inactive are those of the source.

Legend:
[1] = molecular target: T1, ORF 73 (Human herpesvirus 8, UniProt O40947); experiment: KSHV LANA DNA-binding disruption – biochemical, fluorescence polarization, cherry-picked samples, dose response (AID 504725); parameters: species or system Human gammaherpesvirus 8;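 further: fluorescence polarization of a labeled DNA duplex reporting LANA DNA binding; potency is for inhibitors that block LANA binding to the DNA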
T1 sequence (O40947 whole entry): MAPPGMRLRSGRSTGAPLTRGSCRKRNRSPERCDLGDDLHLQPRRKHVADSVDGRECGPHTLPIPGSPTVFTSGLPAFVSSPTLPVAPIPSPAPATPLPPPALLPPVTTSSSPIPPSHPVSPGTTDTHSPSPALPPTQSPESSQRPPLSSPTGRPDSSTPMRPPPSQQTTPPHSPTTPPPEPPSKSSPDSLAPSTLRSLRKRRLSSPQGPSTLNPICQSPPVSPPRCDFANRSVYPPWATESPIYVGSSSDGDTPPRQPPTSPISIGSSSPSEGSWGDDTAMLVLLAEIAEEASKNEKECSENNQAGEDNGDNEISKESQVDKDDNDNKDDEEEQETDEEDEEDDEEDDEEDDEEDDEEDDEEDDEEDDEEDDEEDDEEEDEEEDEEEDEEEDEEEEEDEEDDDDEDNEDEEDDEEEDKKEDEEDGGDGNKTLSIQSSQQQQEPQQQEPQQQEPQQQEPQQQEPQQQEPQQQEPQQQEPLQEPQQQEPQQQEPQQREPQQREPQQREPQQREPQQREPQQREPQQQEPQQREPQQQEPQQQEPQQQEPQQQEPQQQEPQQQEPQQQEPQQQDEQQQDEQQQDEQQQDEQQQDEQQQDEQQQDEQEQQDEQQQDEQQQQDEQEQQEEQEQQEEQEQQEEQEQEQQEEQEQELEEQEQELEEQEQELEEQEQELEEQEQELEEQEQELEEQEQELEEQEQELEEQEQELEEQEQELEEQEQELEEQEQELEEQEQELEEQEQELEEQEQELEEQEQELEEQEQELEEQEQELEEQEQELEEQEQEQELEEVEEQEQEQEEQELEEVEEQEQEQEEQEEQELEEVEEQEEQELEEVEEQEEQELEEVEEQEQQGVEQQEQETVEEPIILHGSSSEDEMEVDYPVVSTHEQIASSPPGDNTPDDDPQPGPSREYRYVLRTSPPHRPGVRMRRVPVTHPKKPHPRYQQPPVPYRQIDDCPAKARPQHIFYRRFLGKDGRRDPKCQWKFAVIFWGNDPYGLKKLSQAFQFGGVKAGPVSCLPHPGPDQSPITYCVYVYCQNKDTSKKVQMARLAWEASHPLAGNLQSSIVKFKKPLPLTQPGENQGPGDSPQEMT

[2] = molecular target: Keap1/Nrf2 (Homo sapiens, UniProt Q14145); experiment: disruptors of Keap1 binding to Nrf2 peptide – biochemical, fluorescence polarization, cherry-picked samples, dose response (AID 588683)
[3] = molecular target: T2, Corticotropin-releasing factor receptor 2/Corticotropin-releasing factor-binding protein (Homo sapiens, UniProt P24387+Q13324); experiment: activators of CRF receptor 2 with binding protein – uHTS hits, confirmation (AID 602473); assay type: functional; details: read-out: EC50_Mean
T2 sequence (Q13324 whole entry): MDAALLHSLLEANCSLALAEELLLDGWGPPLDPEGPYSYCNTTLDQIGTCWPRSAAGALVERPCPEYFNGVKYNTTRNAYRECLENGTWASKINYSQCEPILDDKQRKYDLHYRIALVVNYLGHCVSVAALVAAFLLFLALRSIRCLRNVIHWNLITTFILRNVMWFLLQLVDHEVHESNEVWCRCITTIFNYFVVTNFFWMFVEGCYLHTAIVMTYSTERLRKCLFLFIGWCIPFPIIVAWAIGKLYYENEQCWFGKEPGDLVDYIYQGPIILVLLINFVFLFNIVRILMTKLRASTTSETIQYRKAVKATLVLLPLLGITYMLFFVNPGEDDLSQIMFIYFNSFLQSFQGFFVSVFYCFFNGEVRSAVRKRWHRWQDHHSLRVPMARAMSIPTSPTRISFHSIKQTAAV
T2 sequence (P24387 whole entry): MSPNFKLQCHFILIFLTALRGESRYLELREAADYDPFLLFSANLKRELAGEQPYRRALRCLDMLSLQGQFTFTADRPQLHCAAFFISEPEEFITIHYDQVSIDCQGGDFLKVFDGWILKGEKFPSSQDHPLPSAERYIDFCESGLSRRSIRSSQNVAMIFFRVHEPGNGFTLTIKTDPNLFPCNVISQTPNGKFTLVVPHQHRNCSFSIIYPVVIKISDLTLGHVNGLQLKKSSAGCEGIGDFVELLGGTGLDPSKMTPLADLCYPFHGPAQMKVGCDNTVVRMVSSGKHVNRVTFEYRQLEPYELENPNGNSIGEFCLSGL

[4] = system: HEK293; experiment: HEK293T cell viability loss, resazurin readout – resazurin fluorescence, cytotoxicity control for NF-kB activator project, SAR follow-up (AID 493251); assay type: functional, cell-based; details: Homo sapiens
[5] = molecular target: T3, Hexokinase HKDC1 (Homo sapiens, UniProt Q2TB90); experiment: SAR analysis of small molecule inhibitors of hexokinase domain containing I (HKDC1). [Related pubchem assays (depositor defined):AID493160, AID493190]; assay type: functional
T3 sequence (Q2TB90 whole entry): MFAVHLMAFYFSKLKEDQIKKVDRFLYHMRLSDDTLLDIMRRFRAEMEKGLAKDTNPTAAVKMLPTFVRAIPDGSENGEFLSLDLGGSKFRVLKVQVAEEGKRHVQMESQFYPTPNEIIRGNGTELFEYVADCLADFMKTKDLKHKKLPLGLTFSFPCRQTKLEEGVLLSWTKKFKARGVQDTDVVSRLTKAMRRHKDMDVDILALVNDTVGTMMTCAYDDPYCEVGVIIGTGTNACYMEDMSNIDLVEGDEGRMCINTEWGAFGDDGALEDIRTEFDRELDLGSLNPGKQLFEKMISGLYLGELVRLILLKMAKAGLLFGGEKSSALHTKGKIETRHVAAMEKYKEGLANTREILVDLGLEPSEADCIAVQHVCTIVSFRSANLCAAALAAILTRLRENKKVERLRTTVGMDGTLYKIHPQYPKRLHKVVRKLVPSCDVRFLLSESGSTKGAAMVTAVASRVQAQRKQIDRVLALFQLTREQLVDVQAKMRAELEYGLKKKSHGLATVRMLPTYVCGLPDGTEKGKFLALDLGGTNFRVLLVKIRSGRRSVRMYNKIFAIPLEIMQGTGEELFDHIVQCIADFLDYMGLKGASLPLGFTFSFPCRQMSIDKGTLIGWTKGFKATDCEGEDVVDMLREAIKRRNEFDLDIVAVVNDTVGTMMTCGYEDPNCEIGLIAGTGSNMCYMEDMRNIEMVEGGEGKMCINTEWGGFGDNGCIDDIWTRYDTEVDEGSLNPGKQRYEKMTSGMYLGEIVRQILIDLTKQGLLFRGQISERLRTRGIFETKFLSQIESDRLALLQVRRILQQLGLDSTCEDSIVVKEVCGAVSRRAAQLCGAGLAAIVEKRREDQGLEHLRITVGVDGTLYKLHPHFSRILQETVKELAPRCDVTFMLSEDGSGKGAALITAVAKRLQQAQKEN

[6] = molecular target: T4, Hexokinase-1 (Homo sapiens, UniProt P19367); experiment: SAR analysis of small molecule inhibitors of hexokinase domain containing I (HKDC1) in the hexokinase 1 selectivity assay. [Related pubchem assays (depositor defined):AID493160, AID493190]; assay type: functional
T4 sequence (P19367 whole entry): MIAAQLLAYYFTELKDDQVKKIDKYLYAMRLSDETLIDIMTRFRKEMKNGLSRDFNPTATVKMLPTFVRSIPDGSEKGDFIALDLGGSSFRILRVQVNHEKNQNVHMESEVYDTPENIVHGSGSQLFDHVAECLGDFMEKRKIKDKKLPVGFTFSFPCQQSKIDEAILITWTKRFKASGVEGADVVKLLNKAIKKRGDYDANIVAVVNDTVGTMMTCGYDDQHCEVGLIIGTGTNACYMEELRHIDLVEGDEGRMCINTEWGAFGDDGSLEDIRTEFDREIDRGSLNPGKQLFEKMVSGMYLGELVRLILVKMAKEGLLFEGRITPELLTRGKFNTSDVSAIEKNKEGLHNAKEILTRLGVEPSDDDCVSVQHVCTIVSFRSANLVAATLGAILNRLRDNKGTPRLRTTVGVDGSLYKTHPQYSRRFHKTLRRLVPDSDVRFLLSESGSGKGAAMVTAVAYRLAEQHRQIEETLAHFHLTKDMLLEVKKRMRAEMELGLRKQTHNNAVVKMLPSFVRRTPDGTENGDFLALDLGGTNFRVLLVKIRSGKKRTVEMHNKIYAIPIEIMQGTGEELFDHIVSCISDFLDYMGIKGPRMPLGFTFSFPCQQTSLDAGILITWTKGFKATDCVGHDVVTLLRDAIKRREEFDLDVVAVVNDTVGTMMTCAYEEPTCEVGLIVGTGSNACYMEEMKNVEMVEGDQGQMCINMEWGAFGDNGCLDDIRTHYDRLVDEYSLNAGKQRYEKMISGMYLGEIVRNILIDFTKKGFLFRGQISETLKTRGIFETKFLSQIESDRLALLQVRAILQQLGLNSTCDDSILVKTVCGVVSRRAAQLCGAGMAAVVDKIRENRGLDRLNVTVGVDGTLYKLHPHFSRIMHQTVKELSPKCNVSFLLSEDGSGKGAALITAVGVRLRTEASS

Chain of Keap1/Nrf2 (Q16236 whole entry): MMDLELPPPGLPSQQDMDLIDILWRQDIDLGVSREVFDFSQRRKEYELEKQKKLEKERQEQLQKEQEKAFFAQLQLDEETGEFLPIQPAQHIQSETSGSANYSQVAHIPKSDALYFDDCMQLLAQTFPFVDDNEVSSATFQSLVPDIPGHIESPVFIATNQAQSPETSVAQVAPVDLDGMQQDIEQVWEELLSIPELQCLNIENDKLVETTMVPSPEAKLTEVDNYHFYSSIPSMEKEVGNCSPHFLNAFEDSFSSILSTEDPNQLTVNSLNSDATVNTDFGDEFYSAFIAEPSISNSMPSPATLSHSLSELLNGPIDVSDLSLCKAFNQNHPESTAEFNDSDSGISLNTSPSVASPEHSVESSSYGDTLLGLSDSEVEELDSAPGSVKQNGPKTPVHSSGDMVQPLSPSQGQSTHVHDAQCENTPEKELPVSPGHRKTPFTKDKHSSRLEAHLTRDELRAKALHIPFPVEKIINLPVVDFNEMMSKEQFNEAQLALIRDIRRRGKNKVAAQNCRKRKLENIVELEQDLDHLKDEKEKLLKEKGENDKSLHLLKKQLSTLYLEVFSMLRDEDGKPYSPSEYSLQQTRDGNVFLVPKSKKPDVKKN
Chain of Keap1/Nrf2 (Q14145 whole entry): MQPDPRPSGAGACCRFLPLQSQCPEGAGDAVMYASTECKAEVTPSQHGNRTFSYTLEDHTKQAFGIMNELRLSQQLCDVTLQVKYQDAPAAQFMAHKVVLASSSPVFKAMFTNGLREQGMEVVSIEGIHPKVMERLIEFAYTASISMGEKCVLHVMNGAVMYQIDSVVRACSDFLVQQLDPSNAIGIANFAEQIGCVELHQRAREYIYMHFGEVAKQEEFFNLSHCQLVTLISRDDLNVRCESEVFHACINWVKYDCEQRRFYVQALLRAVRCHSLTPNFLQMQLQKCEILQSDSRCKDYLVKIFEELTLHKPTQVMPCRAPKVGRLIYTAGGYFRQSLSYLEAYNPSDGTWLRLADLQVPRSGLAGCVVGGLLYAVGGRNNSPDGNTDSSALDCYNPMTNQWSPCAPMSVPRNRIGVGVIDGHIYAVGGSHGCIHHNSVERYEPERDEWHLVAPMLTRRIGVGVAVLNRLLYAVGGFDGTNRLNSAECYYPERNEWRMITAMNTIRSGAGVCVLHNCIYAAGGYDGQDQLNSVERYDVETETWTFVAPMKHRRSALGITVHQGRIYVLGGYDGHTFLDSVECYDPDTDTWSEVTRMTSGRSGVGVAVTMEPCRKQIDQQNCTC

Row | SMILES | AC50 [1] | AC50 [2] | IC50 [5] | IC50 [6] | also measured
1 | Cc1cc[n+](-c2[n-]c(=O)sc2/C=N/NC(=O)c2ccccc2)cc1C | 13.3 µM (active) | 11.8 µM (active) | – | – | –
2 | CCNC(=O)CCc1nc(-c2ccccc2)no1 | – | – | – | – | IC50 [4]: > 80 µM (inactive)

Further lines, with some results ahead:

Row | AC50 [1] | AC50 [2] | IC50 [5] | IC50 [6] | SMILES | also measured
3 | 8.04 µM (active) | 5.31 µM (active) | – | – | CCC1(c2ccccc2)NC(=O)N(CC(=O)Nc2ccc(OC)nc2)C1=O (stereo not given) | EC50 [3]: 18.6 µM (active)
4 | – | – | > 80 µM (inactive) | > 80 µM (inactive) | O=c1c2ccccc2nc(/C=C/c2ccc(O)cc2)n1Cc1ccccc1 | –
5 | – | – | > 80 µM (inactive) | > 80 µM (inactive) | Cc1cc2nnc(SCC(=O)Nc3cccc(S(=O)(=O)N4CCCCC4)c3)n2c2ccccc12 | –
